The text below walks through data of PubChem BioAssay (NCI).

SMILES strings stand for the structures.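 96-well plates; 48 h exposure; 5 concentrations. Endpoints by linear interpolation between flanking doses. Not reached: highest tested concentration assigned. At the TGI there is no net growth.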

Test systems include RPMI-8226 leukemia; MDA-MB-231 breast; OVCAR-3 ovarian; UACC-257 melanoma; HT29 colon; SF-539 CNS; SF-268 CNS; CCRF-CEM leukemia; DU-145 prostate; ACHN renal.
Common to all, as to test: NCI-60 cell line screen, 48 h

Turning to `CN(C)c1ccc(C2=C([O-])c3cc(-[n+]4ccccc4)ccc3C2=O)cc1`, the TGI in the test with RPMI-8226 leukemia, in the test with MDA-MB-231 breast, in the test with OVCAR-3 ovarian, in the test with UACC-257 melanoma, in the test with HT29 colon and with SF-539 CNS was greater than 100 µM throughout. In addition, the TGI with SF-268 CNS, in the test with CCRF-CEM leukemia, in the test on DU-145 prostate and in the test with ACHN renal was greater than 100 µM each time.
As for `CNc1ccc(Cl)cc1C(=O)N1CCC[C@H]1CO`, the TGI in the test on RPMI-8226 leukemia, in the test on MDA-MB-231 breast, in the test with OVCAR-3 ovarian, in the test with UACC-257 melanoma, in the test with HT29 colon and in the test on SF-539 CNS was greater than 100 µM in each case. Further, the TGI with SF-268 CNS, with CCRF-CEM leukemia, with DU-145 prostate and in the test on ACHN renal was greater than 100 µM each time.
For the compound `CCC12CN(C(=O)OC)C3C(Br)C1CCC(=O)C32` (stereo not given), the TGI with RPMI-8226 leukemia, in the test with MDA-MB-231 breast, with OVCAR-3 ovarian, with UACC-257 melanoma, in the test on HT29 colon and with SF-539 CNS was greater than 100 µM in each case. Further, the TGI in the test with SF-268 CNS, in the test on CCRF-CEM leukemia, with DU-145 prostate and in the test with ACHN renal was greater than 100 µM each time.
In the case of `COc1ccc(N2C(=O)C3c4[nH]c5ccc(OC)cc5c4C4CCC(c5ccccc5)CC4C3C2=O)cc1` (stereo not given), the TGI was 39.7 µM in the test with RPMI-8226 leukemia; 25 µM in the test on MDA-MB-231 breast; 37 µM in the test on OVCAR-3 ovarian; greater than 88.9 µM with UACC-257 melanoma; greater than 40.5 µM in the test with HT29 colon; 13.9 µM in the test on SF-539 CNS. For the same compound, the TGI in the test on SF-268 CNS is greater than 46.6 µM; with CCRF-CEM leukemia, 10.3 µM; in the test with DU-145 prostate, greater than 100 µM; in the test on ACHN renal, 34 µM.
Turning to `O=C(O)C(C(F)(F)F)C(F)(F)F` (tested in a mixture with another compound), the TGI in the test on RPMI-8226 leukemia, in the test with MDA-MB-231 breast, with OVCAR-3 ovarian, in the test with UACC-257 melanoma, in the test on HT29 colon and in the test with SF-539 CNS was greater than 100 µM throughout. For the same compound, the TGI with SF-268 CNS, in the test on CCRF-CEM leukemia, in the test on DU-145 prostate and with ACHN renal was greater than 100 µM throughout.
Take `CN1C(CC(O)c2ccccc2)CCCC1CC(O)(c1ccccc1)c1ccccc1` (stereo not given): the TGI with RPMI-8226 leukemia turned out to be 41.1 µM; in the test with MDA-MB-231 breast, 48.8 µM; in the test with OVCAR-3 ovarian it was 31.3 µM; with UACC-257 melanoma, 33.4 µM; in the test on HT29 colon it was 31.8 µM; with SF-539 CNS, 27.3 µM. The TGI came to 43.7 µM with SF-268 CNS, 58.1 µM in the test on CCRF-CEM leukemia, 45.6 µM in the test with DU-145 prostate and 52.2 µM in the test on ACHN renal.
For the compound `CCCCCCCCCc1cc(=O)c2c(O)cc(O)cc2o1`, the TGI is 22.3 µM with RPMI-8226 leukemia; greater than 100 µM with MDA-MB-231 breast; 30.4 µM with OVCAR-3 ovarian; 35.5 µM in the test with UACC-257 melanoma; 34.4 µM with HT29 colon; 34.4 µM in the test on SF-539 CNS. Moreover, the TGI with SF-268 CNS was found to be 14.5 µM; in the test on CCRF-CEM leukemia, 44.7 µM; in the test on DU-145 prostate, 36.7 µM; with ACHN renal, 34.5 µM.
Regarding `O=C(O)c1ccc2[nH]c(=O)oc2c1`, the TGI in the test with RPMI-8226 leukemia, in the test with MDA-MB-231 breast, with OVCAR-3 ovarian, in the test on UACC-257 melanoma, in the test on HT29 colon and in the test on SF-539 CNS was greater than 100 µM in each case. Besides, the TGI in the test with SF-268 CNS, in the test on CCRF-CEM leukemia, in the test on DU-145 prostate and in the test on ACHN renal was greater than 100 µM each time.
For the compound `O=C(O)c1ccc(C2=Nc3cccc4cccc(c34)N2)cc1`, the TGI with RPMI-8226 leukemia, in the test with MDA-MB-231 breast, with OVCAR-3 ovarian, in the test on UACC-257 melanoma, in the test on HT29 colon and in the test with SF-539 CNS was greater than 100 µM each time. In addition, the TGI with SF-268 CNS, in the test with CCRF-CEM leukemia, in the test with DU-145 prostate and with ACHN renal was greater than 100 µM each time.
Turning to `COc1cc(/C=C/C(=O)N[C@@H]2C(=O)N3[C@@H]2SC(C)(C)[C@@H]3C(=O)O)ccc1O`, the TGI with RPMI-8226 leukemia, with MDA-MB-231 breast, with OVCAR-3 ovarian, in the test on UACC-257 melanoma, in the test on HT29 colon and in the test with SF-539 CNS was greater than 100 µM throughout. The TGI with SF-268 CNS, in the test with CCRF-CEM leukemia, in the test with DU-145 prostate and in the test with ACHN renal was greater than 100 µM in each case.
Take `COC(=O)C(Cc1ccccc1)NP(=O)(O)OCC1OC(n2ccc(N)nc2=O)C(O)C1O` (stereo not given): the TGI in the test on RPMI-8226 leukemia, with MDA-MB-231 breast, with OVCAR-3 ovarian, with UACC-257 melanoma, in the test on HT29 colon and in the test with SF-539 CNS was greater than 100 µM each time. Further, the TGI with SF-268 CNS, with CCRF-CEM leukemia, in the test on DU-145 prostate and with ACHN renal was greater than 100 µM in each case.
For the compound `C/C=C/C(O)P(=O)(OC)OC` (stereo not given), the TGI in the test on RPMI-8226 leukemia is 0.514 µM; with MDA-MB-231 breast, 1.57 µM; in the test with OVCAR-3 ovarian it was 0.783 µM; in the test with UACC-257 melanoma, 0.792 µM; in the test on HT29 colon it was 1.11 µM; in the test with SF-539 CNS, 0.74 µM. The TGI is 0.914 µM in the test with SF-268 CNS, greater than 100 µM in the test with CCRF-CEM leukemia, 1.49 µM in the test on DU-145 prostate and 1.25 µM in the test with ACHN renal.
Consider `O=c1oc2ccccc2c(O)c1Cc1ccccc1Cc1c(O)c2ccccc2oc1=O`, for which the TGI in the test with RPMI-8226 leukemia, in the test with MDA-MB-231 breast, with OVCAR-3 ovarian, with UACC-257 melanoma, in the test on HT29 colon and with SF-539 CNS was greater than 100 µM each time. In addition, the TGI with SF-268 CNS, in the test on CCRF-CEM leukemia, with DU-145 prostate and in the test with ACHN renal was greater than 100 µM in each case.
In the case of `CCOC(=O)c1nc2ccc(C(F)(F)F)cc2nc1NCc1ccc(F)cc1`, the TGI in the test on RPMI-8226 leukemia, with MDA-MB-231 breast, in the test with OVCAR-3 ovarian, in the test with UACC-257 melanoma, with HT29 colon and in the test on SF-539 CNS was greater than 100 µM throughout. Besides, the TGI in the test on SF-268 CNS was 53.9 µM; in the test with CCRF-CEM leukemia, greater than 100 µM; with DU-145 prostate, greater than 100 µM; with ACHN renal it was greater than 100 µM.
As to `C/C(=N\NC(N)=S)C(CN1CCCCC1)C(C1=C(O)c2ccccc2OC1)c1ccccc1` (stereo not given), the TGI in the test with RPMI-8226 leukemia is 73.6 µM; with MDA-MB-231 breast, greater than 100 µM; with OVCAR-3 ovarian it was greater than 100 µM; in the test on UACC-257 melanoma, greater than 100 µM; in the test with HT29 colon it was greater than 100 µM; in the test with SF-539 CNS, greater than 100 µM. For the same compound, the TGI with SF-268 CNS, in the test on CCRF-CEM leukemia, with DU-145 prostate and in the test on ACHN renal was greater than 100 µM in each case.
As for `O=C1c2ccccc2C(=O)c2c1sc1nc3ccccc3n21`, the TGI in the test with RPMI-8226 leukemia amounted to 5.26 µM; with MDA-MB-231 breast it was 9.12 µM; with OVCAR-3 ovarian, 9.34 µM; with UACC-257 melanoma, 3.64 µM; with HT29 colon, 13.8 µM; in the test on SF-539 CNS, 3.81 µM. The TGI was 3.9 µM with SF-268 CNS, 5.48 µM in the test on CCRF-CEM leukemia, 3.13 µM in the test with DU-145 prostate and 6.27 µM in the test on ACHN renal.
As to `COc1ccc(/C=C2/C(=O)N(/C=C3\C(=O)Oc4ccccc4C3=O)C(=NC(C)=O)N2C)cc1OC`, the TGI was greater than 100 µM in the test with RPMI-8226 leukemia; greater than 100 µM in the test on MDA-MB-231 breast; greater than 41.7 µM in the test on OVCAR-3 ovarian; greater than 100 µM in the test with UACC-257 melanoma; greater than 100 µM in the test with HT29 colon; greater than 100 µM in the test on SF-539 CNS. The TGI with SF-268 CNS, in the test on CCRF-CEM leukemia, in the test on DU-145 prostate and in the test with ACHN renal was greater than 100 µM in each case.
For `Cc1[nH]c2[nH]c(=S)nc(NC(N)=S)c2c1Cc1ccccc1`, the TGI in the test on RPMI-8226 leukemia is 55.3 µM; in the test on MDA-MB-231 breast, greater than 100 µM; with OVCAR-3 ovarian it was 77.4 µM; in the test on UACC-257 melanoma, greater than 100 µM; in the test on HT29 colon, 52 µM; in the test with SF-539 CNS it was greater than 100 µM. The TGI in the test on SF-268 CNS, in the test with CCRF-CEM leukemia, in the test on DU-145 prostate and with ACHN renal was greater than 100 µM throughout.
With `O=C1CCCc2cc3c(cc21)CC1(C3)Cc2cc3c(cc2C1)C(=O)CCC3`, the TGI came out at 15.6 µM in the test on RPMI-8226 leukemia; 21.6 µM in the test on MDA-MB-231 breast; 7.2 µM with OVCAR-3 ovarian; 31.2 µM in the test on UACC-257 melanoma; 7.41 µM in the test on HT29 colon; 5.85 µM in the test on SF-539 CNS. Besides, the TGI in the test with SF-268 CNS was greater than 100 µM; in the test with CCRF-CEM leukemia, greater than 34.2 µM; with DU-145 prostate it was 19 µM; in the test with ACHN renal, 35.8 µM.
For the compound `Clc1ccc(C2=Cc3nc2c(-c2ccccc2)c2ccc([nH]2)c(-c2ccccc2)c2nc(c(-c4ccccc4)c4ccc([nH]4)c3-c3ccccc3)C=C2)cc1`, the TGI with RPMI-8226 leukemia, in the test with MDA-MB-231 breast, with OVCAR-3 ovarian, in the test on UACC-257 melanoma, in the test with HT29 colon and in the test on SF-539 CNS was greater than 62.5 µM each time. The TGI in the test on SF-268 CNS, in the test with CCRF-CEM leukemia, in the test with DU-145 prostate and with ACHN renal was greater than 62.5 µM each time.
